“Also recorded” adds a separate entry of the source.
Experiments:
Type in all cases: biochemical
[1] = system: human cardiac cytosol; experiment: Conversion of DOX aglycone into DOXol aglycone, plus or minus taxanes, in human cardiac cytosol; conditions: for stimulation of conversion of DOX aglycone into DOXol aglycone (in words): DOX aglycone in place of DOX, plus taxane; for cytoplasmic conversion of doxorubicinone to doxorubicinolone: n=3
Excerpt: (§1) The enzymes of DOX metabolism are strongly species-related. To avoid the potential pitfalls associated with studies in animal models, an in vitro human heart assay was utilized. The assay involves isolation of both cytosolic fractions generating DOXol, and microsomal fractions converting DOX to free radicals.
(§2) Human myocardium is obtained from patients undergoing aorto-coronary bypass grafting. All samples were routinely disposed of by the surgeons from the lateral aspect of excluded right atrium during cannulation procedures for cardio-pulmonary by-pass. After storage at −80° C., pools of 15-20 samples are processed for cytosol preparation by sequential homogenization, ultracentrifugation and overnight 65% ammonium sulfate precipitation of 105,000 g supernatants. Next, cytosol is dialyzed against 100 mM Tris HCl-40 mM KCl, pH 8.9, diluted to 3 mg protein/ml with the same buffer, and incubated for 15 minutes at room temperature with 100 mM dithiothreitol to promote non-denaturing disassembly of the [4Fe-4S] cluster of cytoplasmic aconitase. This treatment is necessary as reactions of DOXol with [4Fe-4S] clusters would convert this metabolite back to DOX. Sizable amounts of DOXol would therefore go undetected if they reacted with [4Fe-4S] clusters prior to their assay. Unreacted dithiothreitol was eventually removed by sequential gel filtration on (1.5×10 cm) Sepharose 6B columns, protein reprecipitation with 65% ammonium sulfate, and extensive dialysis against 0.3 M NaCl, pH 7.0. Doxorubicin metabolism was reconstituted in 0.5 ml incubations containing cytosol (0.15 mg protein), NADPH (100 μM) and DOX (25 μM), in 0.3 M NaCl (pH 7.0) 37° C. Where indicated ethanol-dissolved taxanes (1-50 μM) were included. Aliquots of taxane-free ethanol (5 μl) were included as appropriate to adjust the final volume to 10 μl in all incubations. After 4 h DOX and DOXol were extracted with 2 ml of CHCl3/CH3OH (1:1) and separated by previously validated two-dimensional TLC on (20×20 cm) […] F524 Silica Gel Plates, using CHCl3/CH3OH/CH3COOH/H2O (80:20:14:6) as mobile phase in either dimension. Doxorubicinol was identified by cochromatography with (S)-DOXol from Streptomyces peucetius or (S)(R)-DOXol purified after NaBH4 reduction of DOX. Where indicated incubations were prepared by replacing DOX with DOX aglycone and by measuring formation of DOXol aglycone. The latter was separated from DOX aglycone by using CHCl3/CH3OH/CH3COOH (100:2:5) and CH3COOC2H5—CH3CH2OH—CH3COOH—H2O (80:10:5:5) in the first and second dimension, respectively. DOX aglycone was purified after thermoacid hydrolysis of DOX.

[2] = system: NADPH cytochrome P-450 reductase; experiment: NADPH oxidation by deoxycholate-solubilized microsomes of human heart, plus or minus taxanes; conditions: 10 μM DOX, 1-10 μM taxane
Method: (§3) Reconstitution of DOX Metabolism and Free Radical Formation, Plus or Minus Taxanes, in Human Cardiac Microsomes.
(§4) 105,000 g pellets from human myocardium homogenates are solubilized with deoxycolate and reconstituted at the final concentration of 0.025 mg prot/ml with 10 μM DOX, 1-10 μM taxane, 0.1 mM NADPH, in 0.3 M NaCl, pH 7.0, 37° C.
(§5) Electron flow from NADPH cytochrome P-450 reductase to the quinone moiety of DOX is detected by monitoring NADPH oxidation. Redox coupling of the semiquinone with oxygen is detected by monitoring formation of the superoxide anion radical with the superoxide dismutase-inhibitable reduction of cytochrome c (25 μM). These assays are performed in a Hewlett Packard 8453A UV/VIS/NIR spectrometer equipped with computer-assisted corrections for scatter and turbidity.

[3] = system: human cardiac cytosol; experiment: Reconstitution of DOX metabolism and DOXol formation, plus or minus taxanes, in human cardiac cytosol; conditions: for stimulation of DOXol formation (in words): [4Fe-4S]-depleted human cardiac cytosol, DOX 25 μM, taxane 1-50 μM, 4 h; for cytoplasmic conversion of DOX to doxorubicinol: human cardiac cytosol, n=3
Excerpt: as §1
Reconstitution of DOX Metabolism and DOXol Formation, Plus or Minus Taxanes, in Human Cardiac Cytosol.
as §2

[4] = system: human cardiac microsomes; experiment: Superoxide anion formation (superoxide dismutase-inhibitable reduction of cytochrome c) by deoxycholate-solubilized human cardiac microsomes; conditions: for effect of taxane on DOX-dependent superoxide anion formation (in words): DOX plus 10 μM taxane; for generation of superoxide anion radicals in microsomal fractions: human cardiac microsomes, n=4-10
Method: as §3, §4, §5

[5] = deoxycholate-solubilized microsomes
[6] = taxane 1 μM with doxorubicinone
[7] = DOX alone, no taxane (baseline)

SMILES | stimulation of conversion of DOX aglycone into DOXol aglycone (in words) [1] | effect on NADPH oxidation in the presence of DOX (in words) [2] | stimulation of DOXol formation (in words) [3] | effect of taxane on DOX-dependent superoxide anion formation (in words) [4, 5] | cytoplasmic conversion of doxorubicinone to doxorubicinolone [1, 6] [nmol/mg prot./4 h] | cytoplasmic conversion of DOX to doxorubicinol ([3]; taxane 1 μM with DOX) [nmol/mg prot./4 h] | cytoplasmic conversion of DOX to doxorubicinol [3, 7] [nmol/mg prot./4 h] | generation of superoxide anion radicals in microsomal fractions [4, 7] [nmol/mg prot./min] | effect of DOX on superoxide anion formation (in words) ([4]; deoxycholate-solubilized microsomes, DOX without taxane) | cytoplasmic conversion of doxorubicinone to doxorubicinolone ([1]; doxorubicinone alone, no taxane (baseline)) [nmol/mg prot./4 h] | generation of superoxide anion radicals in microsomal fractions ([4]; taxane 10 μM with DOX) [nmol/mg prot./min]
CSCO[C@H]1C[C@H]2OC[C@@]2(OC(C)=O)[C@H]2[C@H](OC(=O)c3ccccc3)[C@]3(O)C[C@H](OC(=O)[C@H](O)[C@@H](NC(=O)c4ccccc4)c4ccccc4)C(C)=C([C@@H](OC(C)=O)C(=O)[C@]12C)C3(C)C [7-methylthiomethyl taxol] | did not increase; also recorded: has not been found to stimulate the formation of DOXol aglycone | appeared to inhibit NADPH oxidation | did not increase; also recorded: did not stimulate DOXol formation at any of the concentrations tested | did not increase; also recorded: did not afford any significant stimulation | – | – | – | – | – | – | –
CC(=O)O[C@@]12CO[C@@H]1C[C@H](O)[C@@]1(C)C(=O)[C@H](O)C3=C(C)[C@@H](OC(=O)[C@H](O)[C@@H](NC(=O)OC(C)(C)C)c4ccccc4)C[C@@](O)([C@@H](OC(=O)c4ccccc4)[C@H]21)C3(C)C [DCT, docetaxel] | able to stimulate the conversion of DOX aglycone into DOXol aglycone | – | stimulate DOXol formation | significant increase in superoxide formation | 1.3±0.2 | 1.2±0.2 | – | – | – | – | –
COc1cccc2c1C(=O)c1c(O)c3c(c(O)c1C2=O)C[C@@](O)(C(=O)CO)C[C@@H]3O[C@H]1C[C@H](N)[C@H](O)[C@H](C)O1 [DOX, doxorubicin] | – | – | – | – | – | – | 0.46±0.04 | 1.6±0.1 | able to enhance superoxide anion formation | – | –
COc1cccc2c1C(=O)c1c(O)c3c(c(O)c1C2=O)C[C@@](O)(C(=O)CO)C[C@@H]3O [doxorubicinone] | – | – | – | – | – | – | – | – | – | 0.8±0.1 | –
CC(=O)O[C@H]1C(=O)[C@@]2(C)[C@H]([C@H](OC(=O)c3ccccc3)[C@]3(O)C[C@H](OC(=O)[C@H](O)[C@@H](NC(=O)c4ccccc4)c4ccccc4)C(C)=C1C3(C)C)[C@]1(OC(C)=O)CO[C@@H]1C[C@@H]2O [PTX, paclitaxel] | able to stimulate the conversion of DOX aglycone into DOXol aglycone | able to stimulate NADPH oxidation | stimulate DOXol formation | significant increase in superoxide formation | 1.4±0.2 | 1.1±0.2 | – | – | – | – | 2.2±0.2

From patent publication US20020049169A1, “Method for reducing toxicity of combined chemotherapies” (priority 2000, published 2002)
